Here are results for two molecules from patent US5401514A, “Solid, fast-soluble pharmaceutical preparation containing S-(carboxymethyl)-L-cysteine and/or N-acetylcysteine” (Spirig AG, Pharmazeutische Praeparate, priority 1990, dated 1995).

For data set [1] the following is noted: background knowledge; cited from earlier work.
The nature of data set [2]: Comparative bioavailability test in 10 subjects, plasma N-acetylcysteine by HPLC (tributyl phosphine reduction, o-phthalaldehyde post-column derivatization), oral 200 mg. The text has this:
A process for quantitative determination of N-acetylcysteine in plasma was used, which split the active ingredient with tributyl phosphine reductively and derivatized in with a post-HPLC column using o-phthalaldehyde.
The comparative test is documented in Biopharmaceutics & Drug Disposition, Vol. 12, 343-353 (1991).

For `CC(=O)N[C@@H](CS)C(=O)O` [N-acetylcysteine], in data set [1], the main effect result is given as “expectorant” and the tolerability entry is on record as “very well tolerated”. Besides, the “endogenous average concentrations in plasma” value in data set [2] (human, in vivo) was found to be 0.08 µM. Also, the “Cmax relative to endogenous plasma values” in data set [2] (one 200 mg dose, oral, up to) is on record as “up to 20 times”.
With `N[C@@H](CSCC(=O)O)C(=O)O` [carbocysteine, S-(carboxymethyl)-L-cysteine], in data set [1], the main effect entry is “expectorant” and the tolerability result is reported as “very well tolerated”.
